Each block holds one compound with its values, some of them ahead of it.
Assays:
pea pericarp [1] = test: Split-pericarp assay: growth of deseeded pea pericarps attached to the plant; type: in vivo, Pisum sativum
Excerpt: In addition to GAs, developing pea seeds and pericarps contain two auxins, 4-chloroindole-3-acetic acid (4-Cl-IAA) and indole-3-acetic acid (IAA) (Magnus et al. 1997). A split-pericarp assay where test compounds are applied to the inner wall of split and deseeded pericarps that are still attached to the plant has been developed to examine the effects of exogenously applied growth substances on pericarp growth.
(§1) During early pea fruit growth, the physiological roles of 4-chloroindole-3-acetic acid (4-Cl-IAA) and IAA, both natural pea auxins, in regulating gibberellin (GA) 20-oxidase gene expression (PsGA20ox1) were tested with 4-position, ring-substituted auxins that have a range of biological activities (fruit growth). The effect of seeds, and natural and synthetic auxins (4-Cl-IAA, and IAA; 4-Me-IAA, 4-Et-IAA and 4-F-IAA, respectively), and auxin concentration (4-Cl-IAA) on PsGA20ox1 mRNA levels in pea pericarp were investigated over a 24 h treatment period. The ability of certain 4-substituted auxins to increase PsGA20ox1 mRNA levels in deseeded pericarp was correlated with their ability to stimulate pericarp growth.

[2] = tested on: PsGA20ox1, PsGA3ox1, PsGA2ox1; test: GA biosynthesis/catabolism gene expression in pea pericarp; type: in vivo, Pisum sativum; conditions: 24 h treatment period
Protocol: as §1

pea pericarp [3] = conditions: cited from earlier work; for substitution for seeds in stimulating pericarp growth: deseeded pericarps, early pericarp growth (2 DAA); for substitution for the seeds in maintaining pea fruit growth in planta: in vivo
tomato fruit = conditions: cited from earlier work
[4] = tested on: AtGA20ox and AtGA3ox genes; conditions: non-pollinated fruits; cited from earlier work
pea 'Carneval' = test: Growth chamber experiment 1, pea 'Carneval' sprayed with 4-Cl-IAA (Table P2); type: in vivo, Pisum sativum L.; conditions: for Seed yield per plant: sprayed near or at anthesis
Protocol: For growth chamber experiment, seeds of ‘Carneval’ were planted at an approximate depth of 2.5 cm in 3-L plastic pots (4 seeds per pot and thinned to 2 plants per pot after approximately 2 weeks) in 1:1 Sunshine #4 potting mix (Sun Gro Horticulture, Vancouver, Canada) and sand. The experiment was arranged in a completely randomized design and grown at the University of Alberta in a growth chamber set at 19° C./17° C. (day/night) with a 16/8-h photoperiod under cool-white fluorescent lights (54W/835/HO high fluorescent bulbs, Phillips, Holland; 350 μE m^2 s^−2). For the heat stress treatment, plants were placed in a separate growth chamber with a 16/8-h photoperiod under cool-white fluorescent lights (F54/15/835/HO high fluorescent bulbs, Phillips, Holland) for 4 days where the temperature was cycled over a 24 hr period as follows: 33° C. air temperature for 6 hours per day (between 11:00 and 17:00 hrs) for 4 days during the light cycle; the remainder of the light cycle was maintained at a 22° C. air temperature; the dark cycle was maintained at 19° C. After the 4 day heat treatment, the plants were returned to the same growth chamber they were originally grown in, where they were taken to maturity.
For experiment 1, aqueous 4-chloro-indole-3-acetic acid (4-Cl-IAA) solutions at 1×10^−7, 1×10^−6, or 1×10^−5M in 0.1% (v/v) Tween 80 or aqueous 0.1% (v/v) Tween 80 (control) were applied one time as a spray to the entire plant to cover when the first flowering node of the main stem was near or at anthesis.

canola cv. Peace = test: Greenhouse canola study, foliar auxin spray at green bud stage, with or without heat stress (Tables C1-C4); type: in vivo, Brassica napus
Protocol: Canola seeds (Brassica napus) from the cultivar Peace were planted at an approximate depth of 1 cm in 5 inch square plastic pots (6 inch pot depth; 4 seeds per pot) in 1:1 Sunshine #4 potting mix (Sun Gro Horticulture, Vancouver, Canada) and sand. The seedlings were thinned to one seedling per pot approximately 2 weeks after seeding. Plants were grown at the University of Alberta in a greenhouse from Nov. 14, 2011 to Mar. 5, 2012. The average temperature was approximately 18° C. day/16° C. night (Nov. 14, 2011 to Feb. 8, 2012) then 21° C. day/19° C. night from Feb. 8 to Mar. 5, 2012. The plants also received supplemental lighting daily (average photon flux density of 250 μE m^−2s^−2) for 16 hours per day (from 6 am to 10 pm).
The auxins, 4-methyl-indole-3-acetic acid (4-ME-IAA) or 4-chloro-indole-3-acetic acid (4-Cl-IAA) at 1×10^−7, 1×10^−6, 1×10^−5, or 1×10^−4M in aqueous 0.1% (v/v) Tween 80 or a control solution (aqueous 0.1% [v/v] Tween 80) were applied one time as a foliar spray to canola plants at the green bud stage (BBCH scale 51; prior to bolting when flower buds are visible from above, but they are tightly clustered and have not extended above smallest leaves surrounding the inflorescence). The experiment was arranged in a completely randomized design in the greenhouse.
The heat stress treatment was imposed by moving plants to receive the heat stress from the greenhouse into a growth chamber for 6 days. The light cycle began at 7:00 hours at a 19° C. air temperature. The heat treatment began at 11:00 hours (33° C. air temperature) and was maintained for 6 hours (until 17:00 hours). Following the heat treatment, the remainder of the light cycle was maintained at a 22° C. air temperature. The dark cycle (began at 23:00 hours) was maintained at 17° C. The photoperiod was 16 h light/8 h dark at an average photon flux density of 492 μE m^−2s^−2 using 54W/835/HO high fluorescent bulbs, Phillips, Holland. This heat treatment cycle was imposed for 6 days. The plants were returned to the greenhouse after the heat stress treatment to develop to maturity.

[5] = tested on: PsGA20ox1, PsGA3ox1, PsGA2ox1; conditions: in vivo; cited from earlier work
[6] = 1×10^−4 M, heat stress 33° C. 6 h/day, 6 days (Table C4)
[7] = 1×10^−4 M, non-heat stress (Table C3)
[8] = 1×10^−5 M, heat stress 33° C. 6 h/day, 6 days (Table C4)
[9] = 1×10^−5 M, non-heat stress (Table C3)
[10] = 1×10^−6 M, heat stress 33° C. 6 h/day, 6 days (Table C4)
[11] = 1×10^−6 M, non-heat stress (Table C3)
[12] = 1×10^−7 M, heat stress 33° C. 6 h/day, 6 days (Table C4)
[13] = 1×10^−7 M, non-heat stress (Table C3)

SMILES: O=C(O)Cc1c[nH]c2cccc(F)c12 [4-F-IAA]
pericarp growth (biological activity) (pea pericarp [1]): minimal or no increase
PsGA20ox1 mRNA levels in deseeded pericarp [2]: minimal or no increase

SMILES: CCc1cccc2[nH]cc(CC(=O)O)c12 [4-Et-IAA]
pericarp growth (biological activity) (pea pericarp [1]): minimal or no increase
PsGA20ox1 mRNA levels in deseeded pericarp [2]: minimal or no increase

SMILES: O=C(O)Cc1c[nH]c2ccccc12 [IAA, indole-3-acetic acid, reference compound]
pericarp growth (biological activity) (pea pericarp [1]): not effective
PsGA20ox1 mRNA levels in deseeded pericarp [2]: not effective
substitution for seeds in stimulating pericarp growth (pea pericarp [3]): cannot
substitution for the seeds in maintaining pea fruit growth in planta (pea pericarp [3]): not

SMILES: O=C(O)COc1ccc(Cl)cc1Cl [2,4-D]
parthenocarpic fruit growth (tomato fruit): induced parthenocarpic tomato fruit growth
expression of specific AtGA20ox and AtGA3ox genes [4]: up-regulated

leaf epinasty (canola cv. Peace; 1×10^−4 M, 24 hours after treatment, milder under heat stress): leaf epinasty was observed
SMILES: O=C(O)Cc1c[nH]c2cccc(Cl)c12 [4-Cl-IAA, 4-chloroindole-3-acetic acid]
increase in seed yield vs control (pea 'Carneval'; 1×10^−5 M): 62%
Seed yield per plant (pea 'Carneval'; 1×10^−5 M): 18.28 ± 1.55 g
increase in seed yield vs control (pea 'Carneval'; 1×10^−6 M): 65%
Seed yield per plant (pea 'Carneval'; 1×10^−6 M): 18.61 ± 1.65 g
Seed yield per plant (pea 'Carneval'; 1×10^−7 M): 13.60 ± 1.33 g
% pod set (canola cv. Peace; [6]): 49 ± 4%
Seed yield (canola cv. Peace; [6]): 4.9 ± 0.8 g
Total number of flowers (canola cv. Peace; [6]): 312 ± 32
Total number of pods with developing seeds (canola cv. Peace; [6]): 151 ± 17
Total number of racemes (canola cv. Peace; [6]): 12 ± 1
Total number undeveloped pods (canola cv. Peace; [6]): 45 ± 15
% pod set (canola cv. Peace; [7]): 54 ± 4%
Seed yield (canola cv. Peace; [7]): 4.0 ± 0.3 g
Total number of flowers (canola cv. Peace; [7]): 201 ± 24
Total number of pods with developing seeds (canola cv. Peace; [7]): 106 ± 8
Total number of racemes (canola cv. Peace; [7]): 8 ± 1
Total number undeveloped pods (canola cv. Peace; [7]): 17 ± 4
reduction in number of racemes per plant vs control (canola cv. Peace; 1×10^−4 M, non-stress): 33%
reduction in seed yield vs control (canola cv. Peace; 1×10^−4 M, non-stress): 26%
reduction in total number of developing pods per plant vs control (canola cv. Peace; 1×10^−4 M, non-stress): 31%
% pod set (canola cv. Peace; [8]): 48 ± 2%
Seed yield (canola cv. Peace; [8]): 5.5 ± 1.0 g
Total number of flowers (canola cv. Peace; [8]): 414 ± 65
Total number of pods with developing seeds (canola cv. Peace; [8]): 198 ± 33
Total number of racemes (canola cv. Peace; [8]): 14 ± 2
Total number undeveloped pods (canola cv. Peace; [8]): 34 ± 6
increase in total number of pods with developing seeds per plant vs control (canola cv. Peace; 1×10^−5 M, non-heat stress): 27%
% pod set (canola cv. Peace; [9]): 57 ± 6%
Seed yield (canola cv. Peace; [9]): 5.8 ± 1.0 g
Total number of flowers (canola cv. Peace; [9]): 362 ± 53
Total number of pods with developing seeds (canola cv. Peace; [9]): 195 ± 21
Total number of racemes (canola cv. Peace; [9]): 14 ± 2
Total number undeveloped pods (canola cv. Peace; [9]): 47 ± 19
% pod set (canola cv. Peace; [10]): 53 ± 3%
Seed yield (canola cv. Peace; [10]): 6.8 ± 0.5 g
Total number of flowers (canola cv. Peace; [10]): 430 ± 39
Total number of pods with developing seeds (canola cv. Peace; [10]): 229 ± 30
Total number of racemes (canola cv. Peace; [10]): 15 ± 1
Total number undeveloped pods (canola cv. Peace; [10]): 42 ± 5
seed yield vs control (canola cv. Peace; 1×10^−6 M, mild heat stress): significant increase
% pod set (canola cv. Peace; [11]): 59 ± 4%
Total number of flowers (canola cv. Peace; [11]): 290 ± 26
Total number of pods with developing seeds (canola cv. Peace; [11]): 174 ± 25
Total number of racemes (canola cv. Peace; [11]): 12 ± 1
Total number undeveloped pods (canola cv. Peace; [11]): 29 ± 4
% pod set (canola cv. Peace; [12]): 46 ± 3%
Seed yield (canola cv. Peace; [12]): 6.0 ± 0.9 g
Total number of flowers (canola cv. Peace; [12]): 443 ± 70
Total number of pods with developing seeds (canola cv. Peace; [12]): 197 ± 15
Total number of racemes (canola cv. Peace; [12]): 13 ± 2
Total number undeveloped pods (canola cv. Peace; [12]): 43 ± 14
increase in percent pod set vs control (canola cv. Peace; 1×10^−7 M, non-heat stress): 21%
increase in total number of pods with developing seeds per plant vs control (canola cv. Peace; 1×10^−7 M, non-heat stress): 18%
% pod set (canola cv. Peace; [13]): 64 ± 4%
Seed yield (canola cv. Peace; [13]): 6.2 ± 0.6 g
Total number of flowers (canola cv. Peace; [13]): 287 ± 29
Total number of pods with developing seeds (canola cv. Peace; [13]): 181 ± 14
Total number of racemes (canola cv. Peace; [13]): 10 ± 1
Total number undeveloped pods (canola cv. Peace; [13]): 26 ± 9
pericarp growth (biological activity) (pea pericarp [1]): greatest increase
PsGA20ox1 mRNA levels in deseeded pericarp [2]: greatest increase
substitution for seeds in stimulating pericarp growth (pea pericarp [3]): can substitute for seeds in stimulating pericarp growth
substitution for the seeds in maintaining pea fruit growth in planta (pea pericarp [3]): can substitute for the seeds
gene expression of the GA catabolic gene PsGA2ox1 [5]: repress
pericarp GA biosynthesis gene expression, PsGA20ox1 and PsGA3ox1 [5]: stimulate

From US20140106967A1, “AUXIN PLANT GROWTH REGULATORS” (The Governors of The University of Alberta, priority 2011, published 2014)
